# What was measured:
# [1] = biological target: T1, human dopamine D2L receptors (long isoform) (Homo sapiens, UniProt P14416); experiment: Dopamine D2L receptor binding, [125I]-iodospiperone displacement; conditions: selectivity ratio Ki (D2L)/Ki (D3)
# T1 construct: expressed in transfected cells; host or cells: HEK-293
# Procedure, shortened: (§1)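 Competitive radioligand binding at 25 °C for 60 min in triplicate, in Tris buffer with NaCl, KCl, CaCl2, MgCl2 and 0.1% BSA at pH 7.4. One buffer also held 10 μM quinolone and 0.1% ascorbic acid. Bound radioactivity was collected on GF/B filters and counted by liquid scintillation.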
# [2] = Determination of the microsomal half-life / microsomal clearance; type: in vitro ADME; conditions: human liver microsomes, 0.5 μM test substance, 0.25 mg microsomal protein/ml, pH 7.4, 37° C.
# Procedure, shortened: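 Compound at 0.5 μM was preincubated 5 min at 37 °C with rat, human or other liver microsomes (0.25 mg protein/ml) in 0.05 M potassium phosphate, pH 7.4; NADPH (1 mg/mL) started the reaction. Parent remaining was measured by MS/MS at 0–30 min. T1/2 assumed first-order kinetics; mCl = ln2/T1/2/(microsomal protein mg/ml)×1000 […].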
# [3] = biological target: T2, human dopamine D3 receptors (Homo sapiens, UniProt P35462); experiment: Dopamine D3 receptor binding, [125I]-iodosulpride displacement; conditions: membranes of HEK-293 cells with human D3 receptors, 0.1 nM [125I]-iodosulpride
# T2 construct: expressed in transfected cells; host or cells: HEK-293
# Procedure, shortened: as §1
# hERG cardiac K+ channel = biological target: T3, hERG cardiac K+ channel (Homo sapiens, UniProt Q12809); experiment: Blocking the hERG channel, [3H]dofetilide displacement; type: binding; conditions: membrane homogenate of HEK 293 cells with hERG K+ channels
# T3 construct: expressed in transfected cells; host or cells: HEK-293
# Procedure: The binding affinity of test drugs for the hERG cardiac K^+ channel was determined by their ability to displace tritiated dofetilide (a class III antiarrhythmic drug and potent hERG blocker) in membrane homogenates from HEK-293 cells heterogeneously expressing the hERG channel. The assay was performed as previously described G. J. Diaz et al., Journal of Pharmacological and Toxicological Methods, 50 (2004), 187-199). For this, drug dilutions were prepared from 10 mM DMSO stocks and the following were added to a 96-well polystyrene plate (Perkin-Elmer Optiplate): 20 μl of assay binding buffer (for total bounds), or […] astemizole (for non-specific bounds), or test drug, 50 μl of [^3H]dofetilide (20 nM, ˜80 Ci/mmol specific activity), and 130 μl of membrane homogenate from HEK 293 cells stably transfected with hERG K^+ channels (final protein concentration of 30 μg per well). The plates were incubated at ambient temperature for […], aspirated onto GF/B filter plates (Perkin-Elmer), and washed with 2 ml of cold wash buffer. After allowing the plates to dry, 50 μl of scintillant (Perkin-Elmer MicroScint 20) were added to each well and the radioactivity was counted in a Perkin-Elmer Topcount NXT scintillation counter. […]
# T3 sequence (Q12809 whole entry): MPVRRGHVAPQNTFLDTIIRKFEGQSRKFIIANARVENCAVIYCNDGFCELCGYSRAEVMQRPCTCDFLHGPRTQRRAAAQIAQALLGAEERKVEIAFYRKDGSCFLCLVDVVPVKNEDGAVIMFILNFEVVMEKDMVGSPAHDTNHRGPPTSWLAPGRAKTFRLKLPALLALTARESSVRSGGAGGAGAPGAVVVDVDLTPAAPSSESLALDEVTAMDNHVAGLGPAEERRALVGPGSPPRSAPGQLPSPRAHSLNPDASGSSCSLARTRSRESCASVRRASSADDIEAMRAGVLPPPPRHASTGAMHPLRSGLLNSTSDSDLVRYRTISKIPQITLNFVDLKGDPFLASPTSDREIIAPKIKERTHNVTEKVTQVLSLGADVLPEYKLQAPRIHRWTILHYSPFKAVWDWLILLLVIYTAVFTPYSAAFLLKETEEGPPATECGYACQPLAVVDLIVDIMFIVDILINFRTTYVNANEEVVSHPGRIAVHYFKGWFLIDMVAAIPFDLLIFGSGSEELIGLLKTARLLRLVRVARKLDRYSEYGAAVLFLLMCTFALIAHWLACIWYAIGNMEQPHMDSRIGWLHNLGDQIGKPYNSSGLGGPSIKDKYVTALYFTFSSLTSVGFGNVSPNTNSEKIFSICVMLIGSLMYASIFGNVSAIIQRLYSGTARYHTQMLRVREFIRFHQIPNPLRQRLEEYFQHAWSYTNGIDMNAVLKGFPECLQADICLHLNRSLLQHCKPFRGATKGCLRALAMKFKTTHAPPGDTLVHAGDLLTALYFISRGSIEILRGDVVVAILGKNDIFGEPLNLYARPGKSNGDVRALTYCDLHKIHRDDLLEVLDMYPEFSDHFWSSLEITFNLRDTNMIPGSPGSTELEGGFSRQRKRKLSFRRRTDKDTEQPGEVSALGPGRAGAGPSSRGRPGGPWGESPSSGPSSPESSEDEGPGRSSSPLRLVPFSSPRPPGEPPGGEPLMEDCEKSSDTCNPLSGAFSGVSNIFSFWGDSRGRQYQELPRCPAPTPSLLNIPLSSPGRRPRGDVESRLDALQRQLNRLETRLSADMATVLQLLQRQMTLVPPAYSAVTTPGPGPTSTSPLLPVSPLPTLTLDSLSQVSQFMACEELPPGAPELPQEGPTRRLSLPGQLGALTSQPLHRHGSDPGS
# T2 sequence (P35462 whole entry): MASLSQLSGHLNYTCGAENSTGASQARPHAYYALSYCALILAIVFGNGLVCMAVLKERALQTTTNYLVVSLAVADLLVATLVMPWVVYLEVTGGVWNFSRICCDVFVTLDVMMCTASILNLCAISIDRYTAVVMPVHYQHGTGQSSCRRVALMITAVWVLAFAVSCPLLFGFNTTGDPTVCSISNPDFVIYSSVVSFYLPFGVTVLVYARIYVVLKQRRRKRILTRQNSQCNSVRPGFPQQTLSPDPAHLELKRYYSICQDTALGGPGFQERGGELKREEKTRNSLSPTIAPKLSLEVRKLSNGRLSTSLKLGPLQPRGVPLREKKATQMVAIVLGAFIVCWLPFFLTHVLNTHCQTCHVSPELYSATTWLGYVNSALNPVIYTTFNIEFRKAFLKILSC
# T1 sequence (P14416 whole entry, canonical isoform): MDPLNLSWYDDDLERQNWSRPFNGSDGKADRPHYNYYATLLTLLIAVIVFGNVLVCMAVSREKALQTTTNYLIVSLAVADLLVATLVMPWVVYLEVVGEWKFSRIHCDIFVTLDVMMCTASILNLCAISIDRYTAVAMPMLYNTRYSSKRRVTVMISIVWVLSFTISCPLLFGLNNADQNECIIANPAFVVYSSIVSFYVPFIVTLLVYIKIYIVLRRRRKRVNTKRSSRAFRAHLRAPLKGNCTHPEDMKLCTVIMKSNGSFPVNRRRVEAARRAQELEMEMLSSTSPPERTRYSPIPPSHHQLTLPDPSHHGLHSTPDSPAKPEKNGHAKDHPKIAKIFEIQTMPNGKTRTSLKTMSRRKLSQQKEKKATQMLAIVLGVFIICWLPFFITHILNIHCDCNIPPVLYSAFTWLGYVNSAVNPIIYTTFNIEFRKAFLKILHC
compound,measurement,setting,value
"CC(C)(C)c1nc(C2CCC2)cc(N2CCN(CC[C@H]3CC[C@H](NC(=O)[C@H]4CC[C@H](O)CC4)CC3)CC2)n1 [Compound 1, trans-N-[trans-4-[2-[4-(2-tert-butyl-6-cyclobutyl-pyrimidin-4-yl)piperazin-1-yl]ethyl]cyclohexyl]-4-hydroxy-cyclohexanecarboxamide]","D2/D3, Ki (D2L)/Ki (D3)",[1],+++ (+++>50)
same,Human mCl,[2],+ (+: 20-120 μl min^−1 mg^−1)
same,Ki,[3],< 0.01 µM
same,IC50,hERG cardiac K+ channel,> 10 µM

# From US9388141B2, “Acylaminocycloalkyl compounds suitable for treating disorders that respond to modulation of dopamine D3 receptor” (AbbVie Deutschland GmbH & Co. KG, priority 2013, dated 2016)
